{
  "source": "patent US8563547B2",
  "about": "“(6,7-dihydro-2-nitro-5H-imidazol[2,1-b][1,3]oxazin-6-yl) amide compounds, preparation methods and uses thereof” (Shanghai Sun-Sail Pharmaceutical Science & Technology Co., …, priority 2010, dated 2013)",
  "test_in_all_cases": "microbe, parasite or virus in culture",
  "format_in_all_cases": "cell-based, Mycobacterium tuberculosis",
  "key": {"[1]": {"tested_on": "strain 246: resistant to streptomycin (WHO QC bacterium)", "conditions": "for MIC: Mycobacterium tuberculosis, read-out: drug-resistance bacteria MIC, 246 (S mono-resistance); for MIC value, times as that of PA-824, streptomycin resistance 246: strain 246, relative to PA-824"}, "[2]": {"tested_on": "strain 242: resistant to isoniazide (WHO QC bacterium)", "conditions": "for MIC: Mycobacterium tuberculosis, read-out: drug-resistance bacteria MIC, 242 (H mono-resistance); for MIC value, times as that of PA-824, isoniazide resistance 242: strain 242, relative to PA-824"}, "[3]": {"tested_on": "strain 261: resistant to rifampicin (WHO QC bacterium)", "conditions": "for MIC: Mycobacterium tuberculosis, read-out: drug-resistance bacteria MIC, 261 (R mono-resistance); for MIC value, times as that of PA-824, rifampicin resistance 261: strain 261, relative to PA-824"}},
  "data": [
    {"molecule": "O=C(CN1CCC(Oc2ccc(OC(F)(F)F)cc2)CC1)N[C@@H]1COc2nc([N+](=O)[O-])cn2C1", "note": "[Compound 1, (S)-N-(6,7-dihydro-2-nitro-5H-imidazo [2,1-b][1,3]oxazin-6-yl)-2-(4-(4-(trifluoromethoxy)phenoxy)piperid-1-yl)acetamide]", "values": [
      {"measurement": "MIC", "setting": "[1]", "value": "< 0.0312", "unit": "µg/mL"},
      {"measurement": "MIC value, times as that of PA-824, streptomycin resistance 246", "setting": "[1]", "value": 16, "unit": "times"},
      {"measurement": "MIC", "setting": "[2]", "value": 0.5, "unit": "µg/mL"},
      {"measurement": "MIC value, times as that of PA-824, isoniazide resistance 242", "setting": "[2]", "value": 2, "unit": "times"},
      {"measurement": "MIC", "setting": "[3]", "value": "< 0.0312", "unit": "µg/mL"},
      {"measurement": "MIC value, times as that of PA-824, rifampicin resistance 261", "setting": "[3]", "value": 16, "unit": "times"}
    ]},
    {"molecule": "O=C(CCN1CCC(Oc2ccc(OC(F)(F)F)cc2)CC1)N[C@@H]1COc2nc([N+](=O)[O-])cn2C1", "note": "[Compound 22, (S)-N-(6,7-dihydro-2-nitro-5H-imidazo [2,1-b][1,3]oxazin-6-yl)-3-(4-(4-(trifluoromethoxy)phenoxy)piperid-1-yl)propanamide]", "values": [
      {"measurement": "MIC", "setting": "[1]", "value": 0.0625, "unit": "µg/mL"},
      {"measurement": "MIC value, times as that of PA-824, streptomycin resistance 246", "setting": "[1]", "value": 8, "unit": "times"},
      {"measurement": "MIC", "setting": "[2]", "value": 0.5, "unit": "µg/mL"},
      {"measurement": "MIC value, times as that of PA-824, isoniazide resistance 242", "setting": "[2]", "value": 2, "unit": "times"},
      {"measurement": "MIC", "setting": "[3]", "value": "< 0.0312", "unit": "µg/mL"},
      {"measurement": "MIC value, times as that of PA-824, rifampicin resistance 261", "setting": "[3]", "value": 16, "unit": "times"}
    ]},
    {"molecule": "O=[N+]([O-])c1cn2c(n1)OC[C@@H](OCc1ccc(OC(F)(F)F)cc1)C2", "note": "[PA-824, reference compound]", "values": [
      {"measurement": "MIC", "setting": "[1]", "value": 0.5, "unit": "µg/mL"},
      {"measurement": "MIC", "setting": "[2]", "value": 1, "unit": "µg/mL"},
      {"measurement": "MIC", "setting": "[3]", "value": 0.5, "unit": "µg/mL"}
    ]}
  ]
}
